According to patent publication US8367873B2, “Phenyl-substituted bicyclooctane-1,3-dione derivatives” (Bayer Cropscience AG, priority 2008, dated 2013):

Experiments:
Type in all cases: in vivo
Echinocloa crus-galli [1] = assay: Herbicidal post-emergence action; settings: post-emergence method, 80 g/ha
Outline: (§1)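 Greenhouse-grown weeds were treated post-emergence at the one-leaf stage, two to three weeks after sowing in sandy loam. Compounds formulated as WP were sprayed at various rates in 600 l/ha water with 0.2% wetting agent. Damage was scored visually after about three weeks versus untreated controls (0% = like control, 100% = dead).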

Setaria viridis [2] = assay: Herbicidal post-emergence action; settings: post-emergence method, 80 g/ha
Outline: as §1

Alopecurus myosuroides [3] = assay: Herbicidal post-emergence action; settings: post-emergence method, 80 g/ha
Outline: as §1

Lolium multiflorum [4] = assay: Herbicidal post-emergence action; settings: post-emergence method, 80 g/ha
Outline: as §1

[5] = test system: monocotylidonous and dicotylidonous weed and crop plants; assay: Herbicidal post-emergence action (other test plants); settings: post-emergence method, 80 g/ha
Outline: as §1

Echinocloa crus-galli [6] = assay: Herbicidal pre-emergence action; settings: pre-emergence method, 80 g/ha, greenhouse, visual assessment vs untreated controls
Outline: (§2)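 Seeds sown in sandy loam and covered with soil; WP-formulated compounds applied as aqueous suspension (600 l/ha water, 0.2% wetting agent) to the soil surface at various rates. Greenhouse-grown; emergence damage scored visually after three weeks versus untreated controls (0% = like control, 100% = plants dead).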

Setaria viridis [7] = assay: Herbicidal pre-emergence action; settings: pre-emergence method, 80 g/ha, greenhouse, visual assessment vs untreated controls
Outline: as §2

Alopecurus myosuroides [8] = assay: Herbicidal pre-emergence action; settings: pre-emergence method, 80 g/ha, greenhouse, visual assessment vs untreated controls
Outline: as §2

Lolium multiflorum [9] = assay: Herbicidal pre-emergence action; settings: pre-emergence method, 80 g/ha, greenhouse, visual assessment vs untreated controls
Outline: as §2

[10] = test system: monocotylidonous and dicotylidonous weed and crop plants; assay: Herbicidal pre-emergence action (other test plants); settings: pre-emergence method, 80 g/ha, greenhouse, visual assessment vs untreated controls
Outline: as §2

SMILES | herbicidal effect against ECHCG (Echinochloa crus-galli) (Echinocloa crus-galli [1]) [%] | herbicidal effect against SETVI (Setaria viridis) (Setaria viridis [2]) [%] | herbicidal effect against ALOMY (Alopecurus myosuroides) (Alopecurus myosuroides [3]) [%] | herbicidal effect against LOLMU (Lolium multiflorum) (Lolium multiflorum [4]) [%] | herbicidal effect against AVEFA (Avena fatua) [5] [%] | herbicidal effect ECHCG (Echinocloa crus-galli [6]) [%] | herbicidal effect SETVI (Setaria viridis [7]) [%] | herbicidal effect ALOMY (Alopecurus myosuroides [8]) [%] | herbicidal effect LOLMU (Lolium multiflorum [9]) [%] | herbicidal effect AVEFA [10] [%]
CCOC(=O)OC1=C(c2c(C)cc(C)cc2OC)C(=O)C2CC3(CC12)OCCO3 (racemic) [I-c-64] | 100 | 100 | 80 | 100 | 80 | 50 | 70 | 60 | 100 | 70
COc1cc(C)cc(C)c1C1=C([O-])C2CC3(CC2C1=O)OCC=CCO3.[Na+] (stereo not drawn) [I-f-7] | 100 | 100 | 100 | 100 | 100 | 80 | 90 | 100 | 100 | 70
CCc1cc(C)cc(CC)c1C1=C([O-])C2CC3(CC2C1=O)OCC=CCO3.[Na+] (stereo not drawn) [I-f-12] | 100 | 100 | 100 | 100 | 100 | 100 | 90 | 100 | 70 | 70
CCOC(=O)OC1=C(c2c(C)cc(C)cc2CC)C(=O)C2CC3(CC12)OCC=CCO3 (racemic) [I-c-72] | 100 | 100 | 100 | 100 | 70 | 100 | 80 | 60 | 100 | 50
C=C1COC2(C[C@@H]3C(OC(=O)OCC)=C(c4c(CC)cc(C)cc4CC)C(=O)[C@@H]3C2)OC1 (relative stereo) [I-c-12] | 100 | 100 | 90 | 100 | 90 | 100 | 100 | 100 | 100 | 80
CCc1cc(C)cc(C)c1C1=C(OC(=O)C(C)(C)C)C2CC3(CC2C1=O)OCCCCO3 (stereo not drawn) [I-b-78] | 100 | 70 | 100 | 100 | 70 | 100 | 60 | 100 | 100 | 60
C#CCON=C1CC2C(=O)C(c3c(CC)cc(C)cc3CC)=C(OC(=O)OCC)C2C1 (stereo not drawn) [I-c-41] | 100 | 20 | 100 | 100 | 80 | 60 | 40 | 90 | 100 | 40
COc1cc(C)cc(C)c1C1=C([O-])C2CC3(CC2C1=O)OCCO3.[Na+] (stereo not drawn) [I-f-6] | 100 | 100 | 100 | 100 | 80 | 70 | 70 | 60 | 90 | 90
CCc1cc(C)cc(CC)c1C1=C(OC(=O)OC)C2CC3(CC2C1=O)OCC=CCO3 (stereo not drawn) [I-c-21] | 100 | 100 | 90 | 100 | 100 | 100 | 100 | 90 | 100 | 70
CCOC(=O)OC1=C(c2c(CC)cc(C)cc2CC)C(=O)C2CC3(CC12)OCCS3 (mixture of isomers) [I-c-30] | 100 | 70 | 80 | 100 | 40 | 80 | 60 | 100 | 100 | 90
CCc1cc(C)cc(CC)c1C1=C(OC(=O)C(C)(C)C)C2CC3(CC2C1=O)OCCCS3 (mixture of isomers) [I-b-20] | 100 | 0 | 0 | 60 | 30 | 80 | 90 | 100 | 100 | 90
CCc1cc(C)cc(CC)c1C1=C(OC(=O)C(C)(C)C)C2CC3(CC2C1=O)OCCCO3 (stereo not drawn) [I-b-22] | 100 | 100 | 100 | 100 | 100 | 100 | 80 | 100 | 100 | 70
CCc1cc(C)cc(CC)c1C1=C(OC(=O)OC)[C@H]2C[C@]3(COC(C)(C)O3)C[C@H]2C1=O (relative stereo) [I-c-4] | 100 | 0 | 90 | 100 | 90 | 60 | 50 | 90 | 90 | 80
C=C1CC2C(=O)C(c3c(C)cc(C)cc3CC)=C(OC(=O)OC)C2C1 (racemic) [I-c-77] | 100 | 90 | 0 | 90 | 0 | 80 | 100 | 80 | 90 | 80
Cc1cc(C)c(C2=C([O-])C3CC4(CC3C2=O)OCC(C)CO4)c(C)c1.[Na+] (stereo not drawn) [I-f-9] | 80 | 100 | 80 | 100 | 90 | 60 | 50 | 30 | 100 | 50
C=C1CC2C(=O)C(c3c(C)cc(C)cc3CC)=C(O)C2C1 (stereo not drawn) [I-a-55] | 100 | 100 | 20 | 40 | 0 | 100 | 90 | 60 | 50 | 60
C=C1CC2C(=O)C(c3c(C)cc(C)cc3OC)=C(OC(=O)C(C)C)C2C1 (stereo not drawn) [I-b-62] | 100 | 90 | 30 | 90 | 0 | 70 | 80 | 50 | 70 | 40
C=C1C[C@@H]2C(O)=C(c3c(C)cc(C)cc3C)C(=O)[C@@H]2C1 (relative stereo) [I-a-36] | 90 | 90 | 50 | 90 | 0 | 80 | 80 | 60 | 90 | 70
